The source of these data is patent EP0912534B1, “MUSCARINIC ANTAGONISTS” (SCHERING CORPORATION, priority 1996, dated 1998).

The target in experiment [1] is T1, cloned human m2 muscarinic receptor (Homo sapiens, UniProt P08172).
T1 sequence (P08172 1-466): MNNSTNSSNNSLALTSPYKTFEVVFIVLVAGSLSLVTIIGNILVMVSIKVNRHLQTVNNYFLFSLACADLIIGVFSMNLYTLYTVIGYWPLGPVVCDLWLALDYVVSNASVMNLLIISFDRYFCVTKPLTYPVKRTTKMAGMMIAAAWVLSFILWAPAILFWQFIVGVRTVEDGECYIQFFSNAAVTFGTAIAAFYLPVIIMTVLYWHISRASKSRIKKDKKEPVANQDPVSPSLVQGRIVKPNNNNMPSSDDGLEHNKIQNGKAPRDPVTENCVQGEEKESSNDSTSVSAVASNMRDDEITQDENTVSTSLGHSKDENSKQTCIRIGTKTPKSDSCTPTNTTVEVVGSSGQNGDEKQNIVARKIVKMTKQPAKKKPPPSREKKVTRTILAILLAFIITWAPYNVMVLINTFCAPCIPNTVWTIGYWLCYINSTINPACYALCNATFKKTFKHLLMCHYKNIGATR
The experiment can be described thus: Muscarinic binding activity (3H-QNB displacement), m2.

The target in experiment [2] is T2, cloned human m4 muscarinic receptor (Homo sapiens, UniProt P08173).
T2 sequence (P08173 1-479): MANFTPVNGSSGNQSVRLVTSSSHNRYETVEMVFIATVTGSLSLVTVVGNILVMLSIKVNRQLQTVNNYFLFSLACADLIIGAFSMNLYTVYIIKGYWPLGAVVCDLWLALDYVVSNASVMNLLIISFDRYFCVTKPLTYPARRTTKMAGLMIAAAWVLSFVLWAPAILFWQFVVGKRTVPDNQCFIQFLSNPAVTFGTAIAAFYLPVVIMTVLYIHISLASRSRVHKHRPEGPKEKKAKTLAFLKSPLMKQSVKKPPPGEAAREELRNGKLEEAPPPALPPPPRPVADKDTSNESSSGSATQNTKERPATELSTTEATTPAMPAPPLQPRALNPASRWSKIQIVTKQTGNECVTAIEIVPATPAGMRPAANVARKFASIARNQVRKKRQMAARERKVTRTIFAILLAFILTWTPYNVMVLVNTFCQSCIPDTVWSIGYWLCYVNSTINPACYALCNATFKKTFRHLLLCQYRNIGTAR
As to the kind of experiment: Muscarinic binding activity (3H-QNB displacement), m4.

For experiment [3], the target named is T3, cloned human m1 muscarinic receptor (Homo sapiens, UniProt P11229).
T3 sequence (P11229 1-460): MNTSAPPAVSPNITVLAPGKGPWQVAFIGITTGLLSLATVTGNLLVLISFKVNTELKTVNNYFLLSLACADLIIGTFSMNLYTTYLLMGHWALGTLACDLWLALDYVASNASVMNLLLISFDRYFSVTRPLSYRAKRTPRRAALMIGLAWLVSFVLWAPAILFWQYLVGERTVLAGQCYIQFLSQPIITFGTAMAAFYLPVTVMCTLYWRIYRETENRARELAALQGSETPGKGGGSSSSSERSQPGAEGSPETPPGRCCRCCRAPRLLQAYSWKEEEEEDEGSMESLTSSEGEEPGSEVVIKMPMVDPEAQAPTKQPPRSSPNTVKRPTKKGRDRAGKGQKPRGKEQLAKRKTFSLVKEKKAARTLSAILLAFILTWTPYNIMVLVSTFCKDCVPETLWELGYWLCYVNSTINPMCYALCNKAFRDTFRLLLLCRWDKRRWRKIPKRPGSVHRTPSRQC
The experiment can be described thus: Muscarinic binding activity (3H-QNB displacement), m1.

For experiment [4], the system named is Release of Acetyl Choline (ACh) from Striatum. The experiment can be described thus: Microdialysis: release of acetylcholine from striatum of conscious rats. In kind it is in vivo, male Sprague-Dawley Rats. As to conditions: 10 mg/kg peritoneal, 3 rats, Isomer A. The procedure:
The skull was exposed and drilled through to the dura at a point 0.2 mm anterior and 3.0 mm lateral to the bregma. At these coordinates, a guide cannula was positioned at the outer edge of the dura through the drilled opening, lowered perpendicularly to a depth of 2.5 mm, and permanently secured with dental cement to bone screws. Following the surgery, rats were given ampicillin (40 mg/kg, ip) and individually housed in modified cages. A recovery period of approximately 3 to 7 days was allowed before the microdialysis procedure was undertaken. • Microdialysis: All of the equipment and instrumentation used to conduct in vivo microdialysis was obtained from Bioanalytical Systems, Inc. (BAS). The microdialysis procedure required the insertion through the guide cannula of a thin, needle-like perfusable probe (CMA/12.3 mm x 0.5 mm) to a depth of 3 mm in striatum beyond the end of the guide. The probe was connected beforehand with tubing to a microinjection pump (CMA-/100). Rats were collared and tethered, and, following probe insertion, were placed in a large clear plexiglass bowl with litter material and access to food and water. The probe was perfused at 2 µl/min with Ringer's buffer (NaCl 147 mM; KCI 3.0 mM; CaCl2 1.2 mM; MgCl2 1.0 mM) containing 5.5 mM glucose, 0.2 mM L-ascorbate, and 1 µM neostigmine bromide at pH 7.4. To achieve stable baseline readings, microdialysis was allowed to proceed for 90 minutes prior to the collection of fractions. Fractions (20 µl) were obtained at 10-minute intervals over a 3-hour period using a refrigerated collector (CMA/170 or 200). Following the collection of four to five baseline fractions, the drug or combination of drugs to be tested was administered to the animal. Once collection was complete, each rat was autopsied to determine how accurately the probe was placed. • Acetylcholine (ACh) analysis: The concentration of ACh in collected samples of microdialysate was determined using HPLC/electrochemical detection. Samples were auto-injected (Waters 712 Refrigerated Sample Processor) onto a polymeric analytical HPLC column (BAS, MF-6150) and eluted with 50 mM Na2HPO4, pH 8.5. To prevent bacterial growth, Kathon CG reagent (0.005%) (BAS) was included in the mobile phase. Eluate from the analytical column, containing separated ACh and choline, was then immediately passed through an immobilized enzyme reactor cartridge (BAS, MF-6151) coupled to the column outlet. The reactor contained both acetylcholinesterase and choline oxidase covalently bound to a polymeric backbone. […] Data acquisition was carried out using an IBM Model 70 computer equipped with a microchannel IEEE board. Integration and quantification of peaks were accomplished using "Maxima" chromatography software (Waters Corporation). Total run time per sample was 11 minutes at a flow rate of 1 ml/min. Retention times for acetylcholine and choline were 6.5 and 7.8 minutes respectively. To monitor and correct for possible changes in detector sensitivity during chromatography, ACh standards were included at the beginning, middle and end of each sample queue.
Increases in ACh levels are consistent with presynaptic m2 receptor antagonism.

Where [5] appears, read: membranes of transfected CHO cells, read-out: Ki m2.
Setting [6] is: membranes of transfected CHO cells, read-out: Ki m4.
[7] abbreviates: membranes of transfected CHO cells, read-out: Ki m1.

Where two headings read alike, the source gives them in different places.

Take `Nc1ccc(Oc2ccc3c(c2)OCCC3N2CCN(C3CCCCC3)CC2)cc1` (stereo not shown) [Compound 3]: the inhibitory constant (Ki) was 130 nM in experiment [1] (setting [5]), 37 nM in experiment [2] (setting [6]) and 82 nM in experiment [3] (setting [7]).
The like results for `c1cnc(Oc2ccc3c(c2)CCC3N2CCN(C3CCCCC3)CC2)nc1` (single isomer, unassigned) [Compound 10] were, in that order, 11.5 nM, 17 nM and 151 nM.
Regarding `c1cnc(Oc2ccc3c(c2)CC(CC2CCCCC2)C3N2CCN(C3CCCCC3)CC2)nc1` (stereo not shown) [Compound 12, 2-[[1-(4-Cyclohexyl-1-piperazinyl)-2-(cyclohexylmethyl)-2,3-dihydro-1H-inden-5-yl]oxy]pyrimidine], the Ki in experiment [1] (setting [5]) was found to be 92 nM; in experiment [3] (setting [7]) it was 173 nM.
With `COc1ccc(S(=O)(=O)c2ccc3c(c2)CCC3N2CCN(C3CCCCC3)C[C@H]2C)cc1` (single isomer, unassigned) [Compound 14], the “Mean % of baseline” value is reported as 99.47 % of baseline in experiment [4] (sample collection time 20 min (control, first baseline, before injection)); 100.85 % of baseline in experiment [4] (sample collection time 30 min (control, second baseline, before injection)); 99.71 % of baseline in experiment [4] (sample collection time 40 min (control, third baseline, before injection)); 99.20 % of baseline in experiment [4] (sample collection time 50 min (compounds injected at 50 minutes)); 100.78 % of baseline in experiment [4] (sample collection time 60 min, injected at 50 min); 86.66 % of baseline in experiment [4] (sample collection time 70 min, injected at 50 min). For the same molecule, the “Mean % of baseline” value in experiment [4] (sample collection time 80 min, injected at 50 min) is 95.26 % of baseline; in experiment [4] (sample collection time 90 min, injected at 50 min), 95.90 % of baseline; in experiment [4] (sample collection time 100 min, injected at 50 min), 102.30 % of baseline; in experiment [4] (sample collection time 110 min, injected at 50 min), 108.24 % of baseline; in experiment [4] (sample collection time 120 min, injected at 50 min) it was 85.62 % of baseline; in experiment [4] (sample collection time 130 min, injected at 50 min) it was 103.94 % of baseline. In addition, the “Mean % of baseline” value in experiment [4] (sample collection time 140 min, injected at 50 min) is given as 99.35 % of baseline; in experiment [4] (sample collection time 150 min, injected at 50 min) it was 91.47 % of baseline; in experiment [4] (sample collection time 160 min, injected at 50 min), 90.80 % of baseline; in experiment [4] (sample collection time 170 min, injected at 50 min) it was 89.0 % of baseline; in experiment [4] (sample collection time 180 min, injected at 50 min) it was 83.13 % of baseline. Besides, the Ki in experiment [1] (Ki m2, membranes of transfected CHO cells) came to 6.1 nM; in experiment [2] (Ki m4, membranes of transfected CHO cells), 16 nM; in experiment [3] (Ki m1, membranes of transfected CHO cells), 112 nM.
`O=[N+]([O-])c1ccc(Oc2ccc3c(c2)CCCC3N2CCN(C3CCCCC3)CC2)cc1` (stereo not shown) [Compound 6]: the Ki worked out at 96 nM in experiment [1] (setting [5]), 77 nM in experiment [2] (setting [6]) and 633 nM in experiment [3] (setting [7]).
Consider `O=[N+]([O-])c1ccc(Oc2ccc3c(c2)OCCC3N2CCN(C3CCCCC3)CC2)cc1` (stereo not shown) [Compound 2, 1-Cyclohexyl-4-[7-[(4-nitrophenyl)oxy]-chroman-4-yl]-piperazine], for which the Ki in experiment [1] (setting [5]) turned out to be 27 nM; in experiment [3] (setting [7]), 42 nM.
As for `COc1ccc(S(=O)(=O)c2ccc3c(c2)CCC3N2CCC(N3CCCCC3)CC2)cc1` (stereo not shown) [Compound 13], the Ki in experiment [1] (setting [5]) came out at 17 nM; in experiment [2] (setting [6]), 33 nM; in experiment [3] (setting [7]), 67 nM.
On to `c1cnc(Oc2ccc3c(c2)CCC3N2CCN(C3CCCCC3)CC2)nc1` (stereo not shown) [Compound 9], for which the results for the Ki in experiment [1] (setting [5]) and in experiment [3] (setting [7]) were 35 nM and 265 nM, respectively.
For `Nc1ccc(Oc2ccc3c(c2)CCCC3N2CCN(C3CCCCC3)CC2)cc1` (stereo not shown) [Compound 7], the Ki in experiment [1] (setting [5]) came to 26 nM; in experiment [2] (setting [6]), 21 nM; in experiment [3] (setting [7]) it was 105 nM.
Regarding `c1cnc(Oc2ccc3c(c2)CCC3N2CCN(C3CCCCC3)CC2)nc1` (single isomer, unassigned) [Compound 11], the Ki in experiment [1] (setting [5]) stood at 88 nM; in experiment [3] (setting [7]), 314 nM.
On to `O=S(=O)(c1ccccc1)c1ccc2c(c1)CCC2N1CCN(CCO)CC1` (stereo not shown) [Compound 1], for which the results for the Ki in experiment [1] (setting [5]), in experiment [2] (setting [6]) and in experiment [3] (setting [7]) were 79 nM, 106 nM and 356 nM, respectively.
For `CC(=O)Nc1ccc(Oc2ccc3c(c2)OCCC3N2CCN(C3CCCCC3)CC2)cc1` (stereo not shown) [Compound 4] the same measures were 224 nM, more than 200 nM and 223 nM.
For `c1cnc(Oc2ccc3c(c2)CCCC3N2CCN(C3CCCCC3)CC2)nc1` (stereo not shown) [Compound 5, 4-Cyclohexyl-1-piperazinyl-[6-[(2-pyrimidinyl)oxy]]-1,2,3,4-tetrahydronaphthalene] the same measures were 21 nM, 35 nM and 160 nM.
